Experimental data taken from patent US6613322B2, “Method for treating a subject suffering from conditions associated with an extracellular zinc sphingomyelinase” (The Trustees of Columbia University in the City of New York, priority 1997, dated 2003).

How the values were obtained:
[1] = system: L-SMase of HUVECs; assay: Cytokine regulation of L-SMase activity in HUVEC cell homogenates; type: cell-based, human; conditions: cytokine-treated endothelial cells
Description: FIGS. 23A-B. Cytokine regulation of S- and L-SMase of HUVECs. […] Conditioned media (FIG. 23A) and cell homogenates (FIG. 23B) from these cells were then assayed for SMase activity in the presence or absence of 0.1 mM ZnCl2, respectively.
Cells—Primary cultures of HUVEC were obtained from fresh umbilical cords and maintained in cell culture as previously described (31). Human coronary artery endothelial cells from a donor were purchased from Clonetics Corp. (San Diego, Calif.; cat. # CC-2585, Strain #3033). The cells were grown in endothelial basal media (EBM) (Clonetics) supplemented with 10% HI-FES; 10 μg endothelial cell growth supplement/ml (Sigma; cat. # E0760) and 50 μg gentamicin/ml. Primary cultures of bovine aortic endothelial, cells were established and subcultured as described previously (32). […]

[2] = system: ASM (SMase) mRNA; assay: Northern blot of SMase mRNA in HUVECs; type: cell-based, human; conditions: IL-1β 5 ng/ml, 18 h
Description: FIG. 24. Northern blot analysis of HUVECs incubated in the absence or presence of IL-1β. HUVECs were incubated for 18 h in DMEM, 0.2% BSA alone (Con) or containing human recombinant interleukin-1β (5 ng/ml) (IL1β).
Northern Blot of SMase mRNA—Total cellular RNA was isolated from HUVECs using RNAzol B (Tel-Test. Inc., Friendswood, Tex.). Approximately 10 μg of RNA was separated on a 1% agarose gel and blotted onto a nylon membrane. The membrane was hybridized in a QuikHyb hybridization solution (Stratagene) with a 1.6-kB EcoRI-XhoI fragment of human ASM cDNA (41) that was labeled with ^32P by the random-priming Procedure (GIBCO-BRL®). The amount of RNA loaded for each condition was normalized using a probe to glyceraldehyde-3-phosphate dehydrogenase. The relative intensities of the mRNA bands were determined by densitometric scanning of the autoradiograms using a Molecular Dynamics Computing Densitometer (model 300A) with Image-Quant software.

IL-1β: human recombinant interleukin-1β
L-SMase (lysosomal SMase) activity [1]: decreased | increase in SMase mRNA normalized for GAPDH mRNA [2]: ~40%
